Legend:
Histone deacetylase 8 = target: T1, Histone deacetylase 8 (Homo sapiens, UniProt Q9BY41); assay: Inhibition of HDAC8 (unknown origin) using biotinylated histone H3 KAc peptide (1 to 21 residues) as substrate by HTRF assay
T1 sequence (Q9BY41 whole entry): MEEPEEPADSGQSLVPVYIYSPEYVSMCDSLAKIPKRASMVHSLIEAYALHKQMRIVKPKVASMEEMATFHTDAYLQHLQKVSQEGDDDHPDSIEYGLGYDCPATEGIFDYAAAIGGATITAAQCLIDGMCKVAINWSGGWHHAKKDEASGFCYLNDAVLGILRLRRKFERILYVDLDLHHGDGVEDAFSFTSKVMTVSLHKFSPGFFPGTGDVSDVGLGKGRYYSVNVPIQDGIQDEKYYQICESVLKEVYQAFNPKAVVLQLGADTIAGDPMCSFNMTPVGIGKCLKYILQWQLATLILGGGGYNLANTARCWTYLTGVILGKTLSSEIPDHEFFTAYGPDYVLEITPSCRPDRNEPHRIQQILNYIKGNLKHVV

Histone deacetylase 2 = Histone deacetylase 2 (Homo sapiens, UniProt Q92769); assay: Inhibition of HDAC2 (unknown origin)
Histone deacetylase 2, sequence (Q92769 whole entry): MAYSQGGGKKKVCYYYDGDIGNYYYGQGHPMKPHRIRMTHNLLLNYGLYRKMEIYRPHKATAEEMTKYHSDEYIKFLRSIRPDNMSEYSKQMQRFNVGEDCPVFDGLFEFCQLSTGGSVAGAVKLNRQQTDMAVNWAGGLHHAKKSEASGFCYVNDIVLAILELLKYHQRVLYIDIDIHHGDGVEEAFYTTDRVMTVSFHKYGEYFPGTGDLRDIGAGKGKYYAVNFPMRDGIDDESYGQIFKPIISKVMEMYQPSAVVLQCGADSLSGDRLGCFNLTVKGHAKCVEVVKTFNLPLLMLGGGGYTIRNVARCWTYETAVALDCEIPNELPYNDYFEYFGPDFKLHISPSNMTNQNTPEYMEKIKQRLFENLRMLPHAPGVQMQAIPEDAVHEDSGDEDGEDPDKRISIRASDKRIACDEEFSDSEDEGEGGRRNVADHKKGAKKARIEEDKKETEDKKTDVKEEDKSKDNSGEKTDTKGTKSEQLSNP

Histone deacetylase = assay: Inhibition of HDAC in human HeLa nuclear extract using Boc-Lys(Ac)-AMC or Boc-Lys(Tfa)-AMC as substrate pre-incubated for 5 mins followed by substrate addition and measured after 30 mins by fluorescence assay; type: cell-free
[1] = target: von Hippel-Lindau disease tumor suppressor/Histone deacetylase 8 (+); assay: PROTAC activity at VHL/HDAC8 in human Jurkat cells assessed as induction of HDAC8 degradation measured for 6 hrs by Western blot analysis

O=c1cc(-c2ccccc2)oc2cc(O)cc(O)c12 [CHRYSIN]
IC50 (Histone deacetylase 8): 40.2 µM
IC50 (Histone deacetylase 2): 129 µM

COc1ccc(/C=C/C(=O)NO)c(-c2ccc(Br)cc2)c1
IC50 (Histone deacetylase): > 10 µM

COc1ccc(C(=O)NO)cc1OCc1ccc(C(=O)NCCCCCCCCNc2cccc3c2C(=O)N(C2CCC(=O)NC2=O)C3=O)cc1 (stereo not given)
DC50 [1]: 0.0018 µM

O=C1CCC(N2C(=O)c3cccc(NCc4cn(CCOCCOc5ccc(Cn6ccc7ccc(C(=O)NO)cc76)cc5)nn4)c3C2=O)C(=O)N1 (stereo not given)
DC50 [1]: 0.58 µM

From ChEMBL document CHEMBL6078634, “HDAC8 as a target in drug discovery: Function, structure and design” (Eur J Med Chem, 2024)
